Patent publication US20040116420A1 (priority 2001, published 2004)

Key:
HSV2 = assay: Antiviral activity 2, plaque formation in HEL cells; format: cell-based, HSV-2; details: Human alphaherpesvirus 2, 72 h, 3 days
Experimental: (§1) An Assay Method for Antiviral Activity 2
(§2) The HEL cells were sowed on a 48-well plate and then cultured overnight. The culture supernatant was removed, and 100 μl of 2% FBS-DMEM containing 40 Plaque-forming units of HSV-1, HSV-2, VZV, or CMV was added. A viral solution Was removed 1 hour later, and 500 μl of 2% FBS-DMEM containing 0.5% methylcellulose comprising 50, 25, 12.5, 6.3, 3.2, or 1.6 μM of the test compound was added. In this case, a substance to which 2% FBS-DMEM containing 0.5% methylcellulose not comprising any test compound had been added was designated as a control. In the case of HSV-1, HSV-2, or VZV, incubation was carried out in the presence of 5% CO2 at 37° C. for 3 days. In the case of CMV, incubation was carried out under the same conditions for 14 days. After they were immobilized on formalin and stained with bromophenol blue, the amount of plaque formed was counted, and the ratio of plaque formation of the drug-containing reaction system relative to the control was determined. The concentration of the drug with which the ratio of plaque formation reaches 50% was calculated and determined to be IC50. Concerning HSV-1, an aciclovir-resistant thymidine kinase variant and a DNA polymerase variant were examined in addition to a general aciclovir-sensitive strain.

HCMV = assay: as above; format: cell-based, CMV; details: Human betaherpesvirus 5, 336 h, 14 days
Experimental: as §1, §2

HSV-1 protease = target: T1, HSV-1 protease (Human herpesvirus 1, UniProt P10210); assay: Enzymatic assay for HSV-1 protease (assembly) inhibitor, fluorescence polarization; format: biochemical; details: read-out: HSV-1 Enzyme inhibition IC50
T1 construct: 6xHis (N); made in house; host or cells: baculovirus expression system
How it was run: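 His6-tagged HSV-1 UL26 protease, baculovirus-expressed, preincubated 30 min at RT with compound in 1 M citrate/phosphate buffer pH 7.4 with 20% glycerol and 2 mM TCEP. A biotin-HTYLQA*SERFRIK-DTAF substrate was then cleaved for 60 min at RT, stopped with avidin, and read by fluorescence polarization versus no-inhibitor control.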

VZV = assay: Antiviral activity 2, plaque formation in HEL cells; format: cell-based; details: Human alphaherpesvirus 3, 72 h, 3 days
Experimental: as §1, §2

Vero cells = assay: Cytotoxicity, Vero cells, Alamar Blue; format: cell-based; details: 25 μM, 20 hours
How it was run: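 Overnight-seeded Vero cells were exposed to 25 μM compound in 2% FBS-DMEM for 20 h at 37 °C, 5% CO2. Alamar Blue was then added for about 6 h. The absorbance ratio relative to compound-free control gave the living-cell ratio.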

HSV-1 = assay: Antiviral activity, HSV-1 in Vero cells, plaque method; format: cell-based; details: Human alphaherpesvirus 1, 20 hours, 90% inhibition of plaque formation
How it was run: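 HSV-1 (50,000 pfu in 2% FBS-DMEM) was added to Vero cells and removed, then the compound was applied in 2% FBS-DMEM for 20 h at 37° C, 5% CO2. After a freeze-thaw, virus yield in the medium was titred by plaque assay. EC90 is the concentration giving 90% plaque reduction versus the compound-free control.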

HSV1 Sensitive strain = assay: Antiviral activity 2, plaque formation in HEL cells; format: cell-based, HSV-1; details: Human alphaherpesvirus 1, 72 h, 3 days
Experimental: as §1, §2

[1] = test system: HSV1 Thimidine kinase variant; assay: as above; format: cell-based, HSV-1; details: Human alphaherpesvirus 1, HEL, 72 h, read-out: Antiviral activity: IC50, HSV1 Thimidine kinase variant
Experimental: as §1, §2

[2] = test system: HSV1 DNA polymerase variant; assay: as above; format: cell-based, HSV-1; details: Human alphaherpesvirus 1, HEL, 72 h, read-out: Antiviral activity: IC50, HSV1 DNA polymerase variant
Experimental: as §1, §2

Human plasma stability = format: in vitro ADME
Experimental: An Assay Method for Human Plasma Stability Human plasma was thawed, 200 μl each thereof was placed in each cell of a 96-well plate immediately thereafter, and 4 μl of solution of each test compound in 1 mM DMF was added thereto. A microplate reader for fluorescence absorption was used to assay changes in fluorescence, and half life was determined based on the changes.

T1 sequence (P10210 1-247): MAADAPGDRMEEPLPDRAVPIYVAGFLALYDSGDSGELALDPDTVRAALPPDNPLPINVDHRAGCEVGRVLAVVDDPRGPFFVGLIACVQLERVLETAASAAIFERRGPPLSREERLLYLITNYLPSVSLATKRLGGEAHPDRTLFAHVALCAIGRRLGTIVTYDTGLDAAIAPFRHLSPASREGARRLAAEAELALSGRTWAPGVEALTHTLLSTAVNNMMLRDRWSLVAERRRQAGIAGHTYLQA

Cc1c(NC(=O)OC(C)(C)C)ccc2nc(N(C)[C@@H](Cc3ccccc3)C(=O)NCc3ccccn3)oc(=O)c12 [Compound No.22, [5-Methyl-2-(methyl-{2-phenyl-1S-[(pyridin-2-ylmethyl)-carbamoyl]-ethyl}-amino)-4-oxo-4H-benzo[d][1,3]oxazin-6-yl]-carbamic Acid Tert-Butyl Ester]
IC50 (HSV2): 16.6 µM | IC50 (HCMV): > 25 µM | IC50 (HSV-1 protease): 1.8 µM | IC50 (VZV): > 25 µM | Cell viability (% of control) (Vero cells): 66.5% | EC90 (HSV-1): 9 µM | IC50 (HSV1 Sensitive strain): 9.5 µM | IC50 [1]: 16.3 µM | IC50 [2]: 14.3 µM | half-life at 19.6 μM (Human plasma stability): 3.02 h

Cc1c(NC(=O)OC(C)(C)C)ccc2nc(NC(C)(C)C(=O)N(C)Cc3ccccn3)oc(=O)c12 [Compound No.59, {5-Methyl-2-[1-methyl-1-(methyl-pyridin-2-ylmethyl-carbamoyl)-ethylamino]-4-oxo-4H-benzo[d][1,3]oxazin-6-yl}-carbamic acid tert-butyl ester]
IC50 (HSV-1 protease): 1.1 µM | Cell viability (% of control) (Vero cells): 106.0% | EC90 (HSV-1): 10.1 µM | half-life at 19.6 μM (Human plasma stability): 5.13 h

Cc1c(NC(=O)OC(C)(C)C)ccc2nc(N[C@@H](C)C(=O)N(C)CCc3cccnc3)oc(=O)c12 [Compound No.65, (5-Methyl-2-{1S-[methyl-(2-pyridin-3-yl-ethyl)-carbamoyl]-ethylamino}-4-oxo-4H-benzo[d][1,3]oxazin-6-yl)-carbamic acid tert-butyl ester]
IC50 (HSV-1 protease): 0.2 µM | Cell viability (% of control) (Vero cells): 104.0% | EC90 (HSV-1): 7.6 µM | half-life at 19.6 μM (Human plasma stability): 3.02 h

Cc1c(NC(=O)OC(C)(C)C)ccc2nc(N[C@@H](Cc3ccccc3)C(=O)NCc3ccccn3)oc(=O)c12 [Compound No.20, (5-Methyl-4-oxo-{2-2-phenyl-1S-[(pyridin-2-ylmethyl)-carbamoyl]-ethylamino}-4H-benzo[d][1,3]oxazin-6-yl)-carbamic Acid Tert-Butyl Ester]
IC50 (HSV-1 protease): 0.5 µM | Cell viability (% of control) (Vero cells): 101.0% | EC90 (HSV-1): 5.9 µM | half-life at 19.6 μM (Human plasma stability): 1.47 h

Cc1c(NC(=O)OC(C)(C)C)ccc2nc(N[C@@H](C)C(=O)N(C)Cc3ccccn3)oc(=O)c12 [Compound No.58, {5-Methyl-2-[1S-(methyl-pyridin-2-ylmethyl-carbamoyl)-ethylamino]-4-oxo-4H-benzo[d][1,3]oxazin-6-yl}-carbamic acid tert-butyl ester]
IC50 (HSV-1 protease): 1.7 µM | Cell viability (% of control) (Vero cells): 105.0% | EC90 (HSV-1): 10.8 µM | half-life at 19.6 μM (Human plasma stability): 8.85 h

Cc1c(NC(=O)OC(C)(C)C)ccc2nc(NC(C)(C)C(=O)N(C)CCc3cccnc3)oc(=O)c12 [Compound No.19, (5-Methyl-2-{1-methyl-1-[methyl-(2-pyridin-3-yl-ethyl)-carbamoyl]-ethylamino}-4-oxo-4H-benzo[d][1,3]oxazin-6-yl)-carbamic Acid Tert-Butyl Ester]
IC50 (HSV-1 protease): 0.3 µM | Cell viability (% of control) (Vero cells): 106.0% | EC90 (HSV-1): 6.2 µM | half-life at 19.6 μM (Human plasma stability): 6.2 h

COc1ccc(CC(Nc2nc3ccc(NC(=O)OC(C)(C)C)c(C)c3c(=O)o2)C(=O)NCc2ccccn2)cc1 (stereo not shown) [compound 230, (2-{2-(4-Methoxy-phenyl)-1-[(pyridin-2-ylmethyl)-carbamoyl]-ethylamino}-5-methyl-4-oxo-4H-benzo[d][1,3]oxazin-6-yl)-carbamic acid tert-butyl ester, reference compound]
IC50 (HSV-1 protease): 0.4 µM | EC90 (HSV-1): 6.1 µM | half-life at 19.6 μM (Human plasma stability): 0.45 h

Cc1c(NC(=O)OC(C)(C)C)ccc2nc(NC3(C(=O)N(C)Cc4cccnc4)CCCCC3)oc(=O)c12 [Compound No.120, {5-Methyl-2-[1-(methyl-pyridin-3-ylmethyl-carbamoyl)-cyclohexylamino]-4-oxo-4H-benzo[d][1,3]oxazin-6-yl}-carbamic acid tert-butyl ester]
IC50 (HSV-1 protease): 1.2 µM | EC90 (HSV-1): 10 µM | half-life at 19.6 μM (Human plasma stability): 14.9 h

Cc1c(NC(=O)OC(C)(C)C)ccc2nc(NC3(C(=O)N(C)CCc4ccncc4)CCCCC3)oc(=O)c12 [Compound No.129, (5-Methyl-2-{1-[methyl-(2-pyridin-4-yl-ethyl)-carbamoyl]-cyclohexylamino}-4-oxo-4H-benzo[d][1,3]oxazin-6-yl)-carbamic acid tert-butyl ester]
IC50 (HSV2): 10.3 µM | IC50 (HCMV): > 5 µM | IC50 (HSV-1 protease): 1.1 µM | IC50 (VZV): > 5 µM | EC90 (HSV-1): 5.8 µM | IC50 (HSV1 Sensitive strain): 5.8 µM | IC50 [1]: 17.7 µM | IC50 [2]: 8.7 µM | half-life at 19.6 μM (Human plasma stability): > 15 h

Cc1c(NC(=O)OC(C)(C)C)ccc2nc(N[C@@H](CCc3ccccc3)C(=O)N(C)Cc3ccccn3)oc(=O)c12 [Compound No.23, {5-Methyl-2-[1S-(methyl-pyridin-2-ylmethyl-carbamoyl)-3-phenyl-propylamino]-4-oxo-4H-benzo[d][1,3]oxazin-6-yl}-carbamic Acid Tert-Butyl Ester]
IC50 (HSV-1 protease): 0.7 µM | Cell viability (% of control) (Vero cells): 52.0% | EC90 (HSV-1): < 3.2 µM | half-life at 19.6 μM (Human plasma stability): 9.92 h

CCc1ccc(C(=O)Nc2ccc3nc(NC(C)(C)C(=O)N(C)CCc4ccccn4)oc(=O)c3c2C)cc1 [Compound No.187, 4-Ethyl-N-(5-methyl-2-{1-methyl-1-[methyl-(2-pyridin-2-yl-ethyl)-carbamoyl]-ethylamino}-4-oxo-4H-benzo[d][1,3]oxazin-6-yl)-benzamide]
IC50 (HSV-1 protease): 1.1 µM | Cell viability (% of control) (Vero cells): 65.8% | EC90 (HSV-1): 4.5 µM

Cc1c(NC(=O)OC(C)(C)C)ccc2nc(N[C@H](C(=O)N(C)Cc3ccccn3)C(C)(C)C)oc(=O)c12 [Compound No.60, {2-[2,2-Dimethyl-1S-(methyl-pyridin-2-ylmethyl-carbamoyl)-propylamino]-5-methyl-4-oxo-4H-benzo[d][1,3]oxazin-6-yl}-carbamic acid tert-butyl ester]
IC50 (HSV-1 protease): 26.9 µM | Cell viability (% of control) (Vero cells): 89.6% | EC90 (HSV-1): 4.7 µM

Cc1c(NC(=O)OC(C)(C)C)ccc2nc(N(C)[C@@H](C)C(=O)NCc3ccccn3)oc(=O)c12 [Compound No.71, [5-Methyl-2-(methyl-{1S-[(pyridin-2-ylmethyl)-carbamoyl]-ethyl}-amino)-4-oxo-4H-benzo[d][1,3]oxazin-6-yl]-carbamic acid tert-butyl ester]
IC50 (HSV-1 protease): 0.8 µM | Cell viability (% of control) (Vero cells): 107.0% | EC90 (HSV-1): > 12.5 µM

CCOc1ccc(C(=O)Nc2ccc3nc(NC(C)(C)C(=O)N(C)CCc4ccccn4)oc(=O)c3c2C)cc1 [Compound No.164, 4-Ethoxy-N-(5-methyl-2-{1-methyl-1-[methyl-(2-pyridin-2-yl-ethyl)-carbamoyl]-ethylamino}-4-oxo-4H-benzo[d][1,3]oxazin-6-yl)-benzamide]
IC50 (HSV-1 protease): 1.4 µM | Cell viability (% of control) (Vero cells): 47.7% | EC90 (HSV-1): 6.2 µM

Cc1c(NC(=O)OC(C)(C)C)ccc2nc(N3Cc4ccccc4C[C@H]3C(=O)N(C)Cc3ccccn3)oc(=O)c12 [Compound No.98, {5-Methyl-2-[3S-(methyl-pyridin-2-yl-methylcarbamoyl)-3,4-dihydro-1H-isoquinolin-2-yl]-4-oxo-4H-benzo[d][1,3]oxazin-6-yl}-carbamic acid tert-butyl ester]
IC50 (HSV-1 protease): 6.1 µM | Cell viability (% of control) (Vero cells): 46.2% | EC90 (HSV-1): 5.8 µM
